Measurements published in the NIST ThermoML archive (doi:10.1021/je900672g).
± gives the expanded uncertainty stated by the source.

Test: isobaric coefficient of expansion
Details: Liquid, DSC

C[N+](=O)[O-] [nitromethane]
isobaric coefficient of expansion
Details	278.15 K	288.15 K	298.15 K	308.15 K	318.15 K	328.15 K	338.15 K	348.15 K
5000 kPa	0.00116 ± 2.8e-05 1/K	0.00118 ± 2.9e-05 1/K	0.00121 ± 3e-05 1/K	0.00123 ± 3e-05 1/K	0.00126 ± 3.1e-05 1/K	0.00129 ± 3.2e-05 1/K	0.00134 ± 3.3e-05 1/K	0.00138 ± 3.4e-05 1/K
10000 kPa	0.00114 ± 2.8e-05 1/K	0.00116 ± 2.8e-05 1/K	0.00118 ± 2.9e-05 1/K	0.0012 ± 2.9e-05 1/K	0.00123 ± 3e-05 1/K	0.00126 ± 3.1e-05 1/K	0.00128 ± 3.1e-05 1/K	0.00132 ± 3.2e-05 1/K
15000 kPa	0.00113 ± 2.8e-05 1/K	0.00114 ± 2.8e-05 1/K	0.00116 ± 2.8e-05 1/K	0.00118 ± 2.9e-05 1/K	0.00119 ± 2.9e-05 1/K	0.00121 ± 3e-05 1/K	0.00124 ± 3e-05 1/K	0.00127 ± 3.1e-05 1/K
20000 kPa	0.0011 ± 2.7e-05 1/K	0.00112 ± 2.7e-05 1/K	0.00113 ± 2.8e-05 1/K	0.00115 ± 2.8e-05 1/K	0.00116 ± 2.8e-05 1/K	0.00117 ± 2.9e-05 1/K	0.0012 ± 3e-05 1/K	0.00122 ± 3e-05 1/K
25000 kPa	0.00108 ± 2.6e-05 1/K	0.0011 ± 2.7e-05 1/K	0.00111 ± 2.7e-05 1/K	0.00112 ± 2.7e-05 1/K	0.00113 ± 2.8e-05 1/K	0.00114 ± 2.8e-05 1/K	0.00117 ± 2.9e-05 1/K	0.00119 ± 2.9e-05 1/K
30000 kPa	0.00106 ± 2.6e-05 1/K	0.00108 ± 2.6e-05 1/K	0.00109 ± 2.7e-05 1/K	0.0011 ± 2.7e-05 1/K	0.00111 ± 2.7e-05 1/K	0.00112 ± 2.7e-05 1/K	0.00113 ± 2.8e-05 1/K	0.00115 ± 2.8e-05 1/K
35000 kPa	0.00105 ± 2.6e-05 1/K	0.00106 ± 2.6e-05 1/K	0.00107 ± 2.6e-05 1/K	0.00108 ± 2.6e-05 1/K	0.00109 ± 2.7e-05 1/K	0.0011 ± 2.7e-05 1/K	0.00111 ± 2.7e-05 1/K	0.00112 ± 2.7e-05 1/K
40000 kPa	0.00103 ± 2.5e-05 1/K	0.00104 ± 2.6e-05 1/K	0.00105 ± 2.6e-05 1/K	0.00105 ± 2.6e-05 1/K	0.00106 ± 2.6e-05 1/K	0.00107 ± 2.6e-05 1/K	0.00107 ± 2.6e-05 1/K	0.00108 ± 2.6e-05 1/K
45000 kPa	0.00102 ± 2.5e-05 1/K	0.00102 ± 2.5e-05 1/K	0.00103 ± 2.5e-05 1/K	0.00103 ± 2.5e-05 1/K	0.00104 ± 2.6e-05 1/K	0.00105 ± 2.6e-05 1/K	0.00105 ± 2.6e-05 1/K	0.00106 ± 2.6e-05 1/K
50000 kPa	0.001 ± 2.5e-05 1/K	0.00101 ± 2.5e-05 1/K	0.00101 ± 2.5e-05 1/K	0.00102 ± 2.5e-05 1/K	0.00103 ± 2.5e-05 1/K	0.00103 ± 2.5e-05 1/K	0.00103 ± 2.5e-05 1/K	0.00103 ± 2.5e-05 1/K
55000 kPa	0.000986 ± 2.4e-05 1/K	0.000992 ± 2.4e-05 1/K	0.000998 ± 2.4e-05 1/K	0.001 ± 2.5e-05 1/K	0.00101 ± 2.5e-05 1/K	0.00101 ± 2.5e-05 1/K	0.00102 ± 2.5e-05 1/K	0.00102 ± 2.5e-05 1/K
